Bounds are passed on as bounds.

By Ki is commonly meant a dissociation constant, usually derived from enzyme kinetics or from competition with a known ligand.

In experiment [1] the target is T1, A2A receptor (Rattus norvegicus, UniProt P30543). Nature of the experiment: Adenosine receptor binding affinity, rat A2A.
Experiment [2] concerns the target T1, A2A receptor. Nature of the experiment: Striatal A2A occupancy in rats by ex vivo autoradiography. Also noted: incubation of the tracer with brain slices obtained from rats dosed with compound 504; from tissue; host or cells: striatum in coronal brain sections of male CD rats (Charles River Japan). On the procedure: After that the artery and vein blood was collected into tubes containing heparin. Immediately after that the brain was removed and ebbed in OCT compound and frozen in 2-methyl butane cooled with dry ice. The frozen brains were preserved at −80 C until use.
Coronal sections (20 μm) at about bregma 1.2 mm were prepared using a cyromicrotome (Coldtome, set temperature—20 C), Sakura) and placed on a slide glass (Super Frost, Matsunami Glass; 2 or 3 sections per glass). The brain sections collected on the slide glass were preserved at −80 C. Seventy μL of the reaction solution containing the tracer at 0.1 or 0.3 nmol/L was applied on the brain section and incubated at room temperature for the preset time. The reaction solution containing the tracer was handled using siliconized tools. After the incubation with the tracer, the brain section was washed for 1 minute with ice-cold wash solution three times and rinsed with ice-cold water twice. Non-specific binding of the tracer was evaluated by performing the same reaction with the brain section prepared from drug-untreated rats in the presence of 0.1 mmol/1 NECA. The brain section was dried at room temperature, exposed to the imaging plate (BAS-TR2040, Fuji Film) in a cassette, and left in a shield box for about 24 hours. The radioactivity was recorded under the following conditions: Resolution: 50 μm; Gradation: 256; Sensitivity: 10000; Latitude:5.
These plasma samples were used as calibration curve samples.
To pre-treat plasma samples, the internal standard (I.S.) was dissolved in acetonitrile to prepare an I.S. solution at 0.03 μg/mL. Plasma sample was diluted with control plasma whenever necessary. To 0.1 mL of plasma sample, 10 μL of the I.S. solution and 1 mL of 10 mmol/L ammonium acetate were added and stirred to prepare the sample for pretreatment. The sample was pretreated using Oasis HLB Extraction Plate (30 mg, Waters). Each well was serially conditioned with 1 mL of methanol and water. One ml of the sample for pretreatment was loaded on a well. After each well was washed with 1 mL of 5% vol % methanol, the analyte was eluted with 1 mL acethonitrile. The eluate was evaporated under nitrogen gas stream and the residue was redssolved in 0.1 mL of the reconstituted solution. The sample was centrifuged at 4 C, about 1800×G for 5 minutes using […] (0.45 μm hydrophilic PVDF, Whatman). An aliquote of the filtrate was used for analysis.
Calculation of the A2A receptor occupancy in striatum was done using the below formula
Φ(%)=(1−(PSLKW−BG/A)/(PSLctrl−BG/A))*100
Where PSLKW- and PSLctrl are PSL values in the ROI of compound 504-[…] animal, respectively. PLS is Photo stimulated luminescence for detection of tracer and ROI is region of interest for tracer measurement in striatum. […]

In experiment [3] the target is T2, A1 receptor (Homo sapiens, UniProt P30542).
T2 sequence (P30542 1-326): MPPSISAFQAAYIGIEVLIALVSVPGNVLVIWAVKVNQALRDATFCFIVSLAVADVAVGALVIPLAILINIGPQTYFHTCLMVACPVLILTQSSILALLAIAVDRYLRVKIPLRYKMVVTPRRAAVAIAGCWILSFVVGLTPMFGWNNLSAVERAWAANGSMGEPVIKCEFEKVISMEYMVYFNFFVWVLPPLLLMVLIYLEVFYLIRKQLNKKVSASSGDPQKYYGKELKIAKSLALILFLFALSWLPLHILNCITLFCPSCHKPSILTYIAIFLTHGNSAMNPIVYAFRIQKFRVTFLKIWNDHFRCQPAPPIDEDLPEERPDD
Nature of the experiment: Adenosine receptor binding affinity, human A1.

T1 sequence (P30543 whole entry): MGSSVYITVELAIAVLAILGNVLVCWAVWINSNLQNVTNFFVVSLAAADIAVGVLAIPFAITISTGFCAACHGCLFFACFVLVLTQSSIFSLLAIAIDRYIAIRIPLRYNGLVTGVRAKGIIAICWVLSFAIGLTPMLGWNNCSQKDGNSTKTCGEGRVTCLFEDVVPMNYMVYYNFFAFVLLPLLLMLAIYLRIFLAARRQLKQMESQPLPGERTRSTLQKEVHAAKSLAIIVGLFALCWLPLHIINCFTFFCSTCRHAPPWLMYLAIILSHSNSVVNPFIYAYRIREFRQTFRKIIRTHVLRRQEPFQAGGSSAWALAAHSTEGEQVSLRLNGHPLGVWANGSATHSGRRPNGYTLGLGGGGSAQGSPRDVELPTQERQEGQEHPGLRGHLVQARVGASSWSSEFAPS

`Cc1ccc(C(=O)Nc2nc(-c3ccco3)c(C(=O)C3CCOCC3)s2)cn1` [Compound 504]: the Ki is 0.1 ± 0.0072 nM in experiment [1] and 103 ± 18.4 nM in experiment [3]. Also, in experiment [2] (hysteresis evaluation, semi compartment PK model, rat), the equilibration half-life was below 30 min. Further, the “EC80 plasma concentration of rat striatal occupancy” value in experiment [2] (predicted from rat occupancy Emax PK/PD model) is 1.25 µg/mL. The EC50 in experiment [2] (rat, 0.3 mg/kg oral, Emax model, 95% CI 113 to 128 ng/mL, read-out: EC50 plasma concentration for striatal A2A receptor occupancy (converted)) was 304 nM. Also, the receptor occupancy at 0.175 µg/mL in experiment [2] (rat, read-out: A2A occupancy corresponding to marmoset EC80 of 175 ng/mL) was above 50%.

The values are drawn from patent US20180125835A1, “Dosage and Use of an A2A Antagonist” (H. Lundbeck A/S, priority 2014, published 2018).
